In paper PMC10439028, “SGLT5 is the renal transporter for 1,5-anhydroglucitol, a major player in two rare forms of neutropenia” (Cellular and Molecular Life Sciences: CMLS, 2023):
Substitutions are numbered along the chain they refer to.

What was measured:
hSGLT5 Arg401His = biological target: T1, hSGLT5 Arg401His (Homo sapiens, UniProt A0PJK1, R401H); assay: 1,5-AG uptake in HEK293T cells overexpressing SGLT5 variant Arg401His; type: cell-based
T1 construct: pUB83-hSGLT5-iso2 as well as the various SGLT5 mutants obtained were used to transduce HEK293T cells; expressed in transfected cells; host or cells: HEK293T, lentiviral transduction (pUB83)
T1 sequence (A0PJK1 1-596 R401H): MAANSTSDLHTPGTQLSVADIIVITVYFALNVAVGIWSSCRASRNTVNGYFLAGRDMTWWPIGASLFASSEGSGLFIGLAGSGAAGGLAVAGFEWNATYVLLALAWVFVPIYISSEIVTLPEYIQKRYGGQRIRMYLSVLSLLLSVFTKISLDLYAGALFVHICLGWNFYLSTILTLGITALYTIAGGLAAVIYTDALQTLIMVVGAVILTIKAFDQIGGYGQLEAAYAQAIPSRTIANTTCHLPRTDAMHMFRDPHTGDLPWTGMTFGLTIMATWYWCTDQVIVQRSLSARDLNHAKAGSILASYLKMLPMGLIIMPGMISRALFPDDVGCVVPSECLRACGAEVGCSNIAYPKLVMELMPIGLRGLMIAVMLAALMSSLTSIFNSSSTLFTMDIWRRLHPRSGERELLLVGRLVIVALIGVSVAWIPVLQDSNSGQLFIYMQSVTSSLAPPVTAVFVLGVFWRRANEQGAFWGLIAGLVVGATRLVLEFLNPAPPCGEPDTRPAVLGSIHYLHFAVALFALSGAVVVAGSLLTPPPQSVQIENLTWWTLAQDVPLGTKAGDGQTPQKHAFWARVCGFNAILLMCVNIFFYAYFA
Protocol: (§1) For a typical transporter experiment we proceeded as follows. […] To minimize cell loss during the various washing steps in the radioactive uptake experiments, the wells where the cells were seeded were previously coated with poly- D-lysine, which improved their adhesion to the plastic surface of the wells. For this, each well of the 24-well plates was treated with 200 µl of a 0.01% poly-L-lysine solution for 10 min, washed 3 times with 1 ml of sterilized water and left to dry for 2 h. Only then could the 24-well plates be seeded with the appropriate cell lines and cultured overnight at 37 °C in 5% CO2.
(§2) On day two, the radioactive uptake assay could be performed. The cell culture media was removed by aspiration and cells were incubated for 20 min at 37 °C and 5% CO2 with a basal medium (10 mM HEPES, pH 7.4, 1 mM CaCl2, 1 mM MgCl2, 2 mM KCl) containing 140 mM choline chloride to deplete intracellular Na^2+ ions. […]
(§3) Once the uptake medium was added to the cells, the plates were incubated at 37 °C in 5% CO2 during the required time. […] In each experiment, the transport activities were calculated after subtracting a “blank” value, corresponding to the radioactivity in the appropriate control cells (HEK293T cells that were stably or transiently transfected with one of the parent plasmids pEF6/MycHisA, pEF6HisB, pUB82 or pUB83 with no inserted cDNA) that were analyzed in parallel. […]

hSGLT5 Ala522Val = biological target: T2, hSGLT5 Ala522Val (Homo sapiens, UniProt A0PJK1, A522V); assay: 1,5-AG uptake in HEK293T cells overexpressing SGLT5 variant Ala522Val; type: cell-based
T2 construct: pUB83-hSGLT5-iso2 as well as the various SGLT5 mutants obtained were used to transduce HEK293T cells; expressed in transfected cells; host or cells: HEK293T, lentiviral transduction (pUB83)
T2 sequence (A0PJK1 1-596 A522V): T1 sequence (A0PJK1 1-596 R401H) with H401R, A522V
Protocol: as §1, §2, §3

Question: For OC[C@H]1OC[C@H](O)[C@@H](O)[C@@H]1O [1,5-AG, 1,5-anhydroglucitol], which Vmax (hSGLT5 Arg401His) is on record?
Answer: The Vmax was 11.4 ± 0.2 pmol/min/10^5cells.

Question: And the “reduction of transport efficiency compared to SGLT5” value (hSGLT5 Arg401His)?
Answer: The value was “twofold”.

Question: And the Vmax (hSGLT5 Ala522Val; variant Ala522Val)?
Answer: The Vmax was 18.3 ± 0.5 pmol/min/10^5cells.

Question: What about the “effect of mutation on ability of SGLT5 to transport 1,5-AG” value (hSGLT5 Ala522Val; variant Ala522Val (control)) of the same molecule?
Answer: The value was “no effect”.
